“And” between values parts separate entries of the source, which are not always exact repeats. Equal entries are not always repeated.

8 compounds from PMC6711404 (Science signaling, 2017) can be followed below.

Assay [1] deals with pRII (PKA-II signaling activity) in rat sensory neurons. Format: cell-based. Conditions: for IC50: read-out: IC50 on pRII signals induced by 5-HT.
Assay [2] deals with pRII (PKA-II signaling activity) in mouse sensory neurons. It is filed as cell-based.

As for `C=C[C@@]1(C)CC(=O)[C@]2(O)[C@@]3(C)[C@@H](O)CCC(C)(C)[C@@H]3[C@H](O)[C@H](OC(C)=O)[C@@]2(C)O1` [Fsk, forskolin], the “Neuron subgroups in which pRII intensity is increased” value in assay [1] was “all rat sensory neurons, both RIIβ(-) and RIIβ(+) neurons”. For the same compound, in assay [2], the “Population of Fsk-responding cells” value is 28% and 23%; the “pRII response in Nav1.7-/- versus Nav1.7+/+ cultures” value is reported as “the same”.

In the case of `CCCCC[C@H](O)/C=C/[C@@H]1[C@H]2C/C(=C/CCCC(=O)O)O[C@H]2C[C@H]1O` [PGI2, prostacyclin], in assay [1], the “Neuron subgroups in which pRII intensity is increased” value was “predominately activated RIIβ(+) neurons”. In addition, the “pRII response in Nav1.7-/- versus Nav1.7+/+ cultures” value in assay [2] is on record as “the same”.

Take `NCCc1c[nH]c2ccc(O)cc12` [5-HT]: in assay [1], the “Neuron subgroups in which pRII intensity is increased” value is “predominately activated RIIβ(+) neurons”. Besides, in assay [2], the “Numbers of RIIβ(+) neurons responsive to 5-HT” value was 27.8 ± 1.3% and 19.1 ± 1.2%; the “Smaller sized sensory neurons with increased pRII signals” value was 17% and 21%; the “pRII response in Nav1.7-/- versus Nav1.7+/+ cultures” value is reported as “the maximum amplitude but not the EC50 of the pRII response to 5-HT was reduced”.

With CTOP, in assay [1], the “Effect on 5-HT-induced pRII intensity” value is listed as “did not affect”, the “Effect on DAMGO inhibition of the 5-HT-induced increase in pRII” value is reported as “partially” and the “Effect on basal pRII intensity” value was “did not affect”.

In the case of “8-bromoadenosine-3′,5′-cyclic monophosphorothioate, Sp-isomer, and acetoxymethyl ester [Sp-8-Br-cAMPS-AM]”, the “pRII response in Nav1.7-/- versus Nav1.7+/+ cultures” value in assay [2] was “the same”.

Turning to `O=C1CC[C@@]2(O)[C@H]3Cc4ccc(O)c5c4[C@@]2(CCN3CC2CC2)[C@H]1O5` [naltrexone], in assay [1], the “Effect on 5-HT-induced pRII intensity” value was “no effect” and the “Effect on basal pRII intensity” value is listed as “no effect”. Also, in assay [2], the “Effect on baseline amount of pRII” value is listed as “Neither fentanyl nor naltrexone altered”.

The IC50 is the concentration that gives 50% inhibition. As for `Cn1cc(C(=O)OCC2CCN(CCNS(C)(=O)=O)CC2)c2ccccc21` [GR113808], in assay [1], the “Effect on 5-HT-induced pRII intensity” value is recorded as “blocked” and the IC50 was 8.6 nM.

As to DAMGO, the IC50 in assay [1] is 321 nM. For the same compound, in assay [2], the “Inhibition of 5-HT-induced pRII: Nav1.7-/- versus wild-type neurons” value was “The IC50 to inhibit 5-HT-induced pRII was similar, but the maximum response was greater”.
